Assay [1] deals with MM1S^HECA452. Briefly: survival of SCID beige mice transplanted with MM1S^HECA452 cells. Format: in vivo. The settings on record: MM1S^HECA452 engrafted female SCID beige mice; FIG. 4. Here is the method: (§1) The significance of these in vitro findings were studied in vivo. Female SCID beige mice were injected i.v. with either MM1S^par or MM1S^HECA452 (5×10^5 cells, n=8/group) and followed for survival (see, e.g., FIG. 2). In separate cohorts, the effect of treatment with saline control, GMI-1271, bortezomib (BTZ) or a combination of both was determined in mice transplanted with either MM1S^par or MM1S^HECA452 cells.

The target of assay [2] is T1, E-selectin (Homo sapiens, UniProt P16581).
T1 sequence (P16581 22-610): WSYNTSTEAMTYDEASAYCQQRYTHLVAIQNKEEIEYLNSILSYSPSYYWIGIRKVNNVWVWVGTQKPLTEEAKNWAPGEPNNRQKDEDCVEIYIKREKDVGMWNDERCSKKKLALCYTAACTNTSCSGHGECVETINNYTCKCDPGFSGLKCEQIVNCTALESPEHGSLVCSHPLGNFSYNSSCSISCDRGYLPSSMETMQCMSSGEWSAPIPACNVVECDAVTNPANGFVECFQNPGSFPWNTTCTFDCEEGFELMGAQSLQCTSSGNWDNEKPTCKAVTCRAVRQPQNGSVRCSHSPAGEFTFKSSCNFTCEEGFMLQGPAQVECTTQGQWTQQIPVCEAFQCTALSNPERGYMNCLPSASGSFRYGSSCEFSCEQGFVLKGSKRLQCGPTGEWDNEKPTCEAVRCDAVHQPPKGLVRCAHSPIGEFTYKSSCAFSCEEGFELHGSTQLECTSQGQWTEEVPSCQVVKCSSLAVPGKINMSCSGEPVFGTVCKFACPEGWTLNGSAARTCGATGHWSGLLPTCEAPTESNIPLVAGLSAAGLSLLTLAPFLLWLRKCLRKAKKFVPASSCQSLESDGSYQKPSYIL
The assay is described as follows: static adhesion assay on E-selectin. Format: cell-based. As to conditions: GMI-1271 included during culture conditions; MM1S^HECA452 cells. The source says:
(§2) The derived cell lines could be passaged in vitro and were stable for enriched E-selectin ligand expression identified by antibody HECA-452.

For assay [3], the target named is T1, E-selectin. Briefly: rolling on E-selectin under shear stress. As to conditions: both HECA-452 enriched and parental MM cell lines. Format: cell-based.
From the text: as §2

For a further assay, the system named is MM1S^par. The assay is described as follows: survival of SCID beige mice transplanted with MM1S^par cells. It counts as in vivo. The settings on record: MM1S^par engrafted female SCID beige mice; FIG. 3. Here is the method: as §1
In assay [4] the test system is MM1S^HECA452. The assay is described as follows: mobilization of human CD138+ MM cells into the bloodstream of mice with MM1S^HECA452 tumors. It counts as in vivo. Here is the method: The number of human CD138+ MM cells was mobilized into the bloodstream in mice with MM1S^HECA452 tumors within 60 min following a single injection of GMI-1271 (see, e.g., FIG. 5) and persisted for at least 24 hours (2.37% v. 0.03%, p<0.001). This effect was consistent with GMI-1271 disrupting the tumor microenvironment and mobilizing MM1S^HECA-452 cells from the BM niche into the peripheral blood.

For assay [5], the target named is T1, E-selectin. As to conditions: MM1S cells that bind to HECA-452; previously reported; cited from earlier work.
The subject of another assay is MM cells. The settings on record: murine transplant models; Natoni et al., Blood, 2014; cited from earlier work.
[6] abbreviates: following a single injection of GMI-1271.

As for `CC(C)C[C@H](NC(=O)[C@H](Cc1ccccc1)NC(=O)c1cnccn1)B(O)O` [BTZ, bortezomib], in the assay with MM1S^HECA452 [1], the “survival / anti-myeloma activity” value is on record as “marked resistance to BTZ treatment”.

`CC[C@H]1C[C@@H](C(=O)NCCNC(=O)CCOCCOCCOCCOCCOCCOCCOCCOCCOCCOCCOCCOC)C[C@@H](O[C@@H]2O[C@H](CO)[C@H](O)[C@H](O[C@@H](CC3CCCCC3)C(=O)[O-])[C@H]2NC(C)=O)[C@@H]1O[C@@H]1O[C@@H](C)[C@@H](O)[C@@H](O)[C@@H]1O.[Na+]` [GMI-1271]: on E-selectin [2], the “adhesion of MM1S^HECA452 to E-selectin” value was “marked reduction in adhesion”. The “rolling on E-selectin” value at E-selectin [3] is given as “profoundly inhibited rolling”. Besides, in the assay with MM1S^par, the survival result is “no impact on survival”. The “human CD138+ MM cells in the bloodstream” value in the assay with MM1S^HECA452 [4] (after a single injection of GMI-1271, 24 hours, v. 0.03%, p<0.001) was found to be 2.37%. For the same molecule, in the assay on MM1S^HECA452 [4] (setting [6]), the persistence of mobilization result is given as “at least 24 hours” and the “time to mobilization of CD138+ MM cells into the bloodstream” value was no more than 60 min. On E-selectin [5], the “rolling of MM1S cells on E-selectin” value is listed as “blocked the rolling”. In the assay with MM cells, the “effect on activity of bortezomib in vivo” value is given as “enhance the activity of bortezomib”.
